Earlier results as cited in US20080171083A1, “Pharmaceutical Compositions Comprising an Amphiphilic Starch” (VECTURE LIMITED, priority 2004, published 2008).
Counter-ions that a name gives are not always drawn.

Settings: class-1 high solubility, class-2 highly permeable, low solubility, class-3 low permeability, class-4 low solubility

Row | SMILES | BCS class (solubility / permeability)
1 | NCC1(CC(=O)O)CCCCC1 [Gabapentin] | class-3
2 | CC(C)NCC(O)COc1cccc2ccccc12 (stereo not shown) [propranolol hydrochloride] | class-1
3 | COc1ccc2c(c1)c(CC(=O)O)c(C)n2C(=O)c1ccc(Cl)cc1 [Indomethacin] | class-2
4 | COc1ccccc1OCCNCC(O)COc1cccc2[nH]c3ccccc3c12 (stereo not shown) [Carvedilol] | class-4
